Reference: PMC11189555, “Aryl amino acetamides prevent Plasmodium falciparum ring development via targeting the lipid-transfer protein PfSTART1” (Nature Communications, 2024)
Values joined by “and” are separate entries in the source; they are usually repeats but may differ in a detail not shown here. Equal values may be shown once. “Also recorded” adds a separate entry of the source.

Experiments:
PfSTART1 = target: T1, PfSTART1 (Plasmodium falciparum, UniProt Q8I298); format: binding; details: 100 µM W-991 vs DMSO; 7-25% AEF; p = 0.0014
T1 construct: endogenous in cells; host or cells: P. falciparum mature blood stages (30-42 hpi), soluble lysate
T1 sequence (Q8I298 entry or part of it): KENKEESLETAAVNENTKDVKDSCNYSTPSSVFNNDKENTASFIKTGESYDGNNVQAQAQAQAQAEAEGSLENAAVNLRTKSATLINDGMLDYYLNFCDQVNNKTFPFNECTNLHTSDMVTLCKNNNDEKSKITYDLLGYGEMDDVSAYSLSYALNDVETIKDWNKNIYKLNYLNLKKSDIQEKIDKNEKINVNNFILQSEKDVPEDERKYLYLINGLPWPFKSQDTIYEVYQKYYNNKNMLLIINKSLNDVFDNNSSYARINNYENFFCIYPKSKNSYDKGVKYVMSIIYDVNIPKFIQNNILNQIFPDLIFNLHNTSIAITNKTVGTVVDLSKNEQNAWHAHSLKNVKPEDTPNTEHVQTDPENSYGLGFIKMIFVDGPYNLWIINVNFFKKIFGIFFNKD
Experimental: The experiment was carried out in three biological replicates. Saponin-liberated mature parasite stages (30-42 hpi) were resuspended in PBS and lysed by 3x flash freeze/thawing using liquid N2, followed by 10 x mechanical sheering with a 29 G needle-syringe, and soluble protein isolation through ultracentrifugation (100,000 g; 20 min, 4 °C). Protein lysate was exposed to the 100 µM of W-991 or the vehicle control (DMSO) for 3 min and subsequently incubated with varying concentration of the solvent mixture ‘AEF’ (50% Acetone, 50% Ethanol, 0.1% Formate) to a final concentration of 7-25% (v/v) with 2% intervals, for 20 min at 37 °C at 800 rpm on a Thermomixer (Eppendorf). Denatured protein was pelleted through centrifugation (4 °C, 18,000 g, 20 min), and the soluble phase was recovered and pulled together in equivolume ratios into two samples; Gradient 1 ‘G1’: 7-15% EAF and Gradient 2 ‘G2’: 17-25% EAF, respectively. […]
Peptide samples were analysed on Orbitrap Eclipse Tribrid mass spectrometer that is interfaced with the Neo Vanquish liquid chromatography system. […] Subsequently, the differential abundance analysis (moderated t-test, based on limma package[81]) of P. falciparum proteins was conducted in the R environment (R version 4.2.0; R Studio Version 2023.12.1 + 402) using precursor normalised MaxLFQ data for proteins detected with ≥2 peptides. […]

[1] = system: P. berghei sporozoites invading HC-04 human liver cells; test: In vitro liver invasion assay; format: cell-based, Plasmodium berghei
Experimental: P. berghei ANKA constitutively expressing mCherry[82] was used for the in vitro liver stage invasion assay. Animals used for the generation of the sporozoites were 4- to 5-week-old male Swiss Webster mice and were purchased from the Monash Animal Services (Melbourne, Victoria, Australia) and housed at 22 to 25 °C on a 12 h light/dark cycle with 40-70% humidity at the School of Biosciences, The University of Melbourne, Australia. All animal experiments were in accordance with the Prevention of Cruelty to Animals Act 1986, the Prevention of Cruelty to Animals Regulations 2008, and National Health and Medical Research Council (2013) Australian code for the care and use of animals for scientific purposes. These experiments were reviewed and permitted by the Melbourne University Animal Ethics Committee (2015123).
Infections of naïve Swiss mice were carried out by intraperitoneal (IP) inoculation obtained from a donor mouse between the first and fourth passages from cryopreserved stock. Parasitemia was monitored by Giemsa smear and exflagellation quantified 3 days post-infection. A. stephensi mosquitoes were allowed to feed on anaesthetised mice once the exflagellation rate was assessed between about 12 to 15 exflagellation events per 1 × 10^4 RBCs. Salivary glands of infected mosquitoes (days 17 to 24 post-infection) were isolated by dissection and parasites placed into RPMI-1640 media.
This was performed essentially as described[83] with the minor variations outlined in the Supplementary Information. […]
In vitro liver invasion assays. This was performed essentially as described16 with the following variations. In vitro human liver HCO4 cells (ATCC) were seeded at 1 × 10^5 cells/mL, grown for 24 h and then infected for 2 h with 30,000 Pb ANKA mCherry […]
expressing sporozoites. Following fixation, an IFA with anti -CSP antibody (1:500) followed by anti-mouse Alexafluor 488 (1:1 ,000; Invitrogen, Carlsbad, CA, USA) labels uninvaded parasites. Fluorescence signal was assessed using an Olympus CKX41 epifluorescence microscope. […]
Gametogenesis was then triggered by the addition of 10 μL ookinete medium (gametocyte culture medium supplemented with 100 μM xanthurenic acid and 0.27 µg/mL Cy3-labelled anti-Pfs25 antibody) to each well at room temperature. Plates were then cooled on a metal block at 4°C for four min to ensure even cooling and then stabilised for a further 4 min at 28°C. At 20 min post-induction, male gametogenesis was recorded in each well by automated brightfield microscopy using a x4 objective lens and 1.5x magnifier (x6 effective magnification). Afterward, plates were incubated in the dark at room temperature for 24 h and then female gametogenesis recorded in each well by automated fluorescence microscopy (anti-Pfs25-positive cells). All experiments were performed in quadruplicate with DMSO and cabamiquine (DDD107498)17 as negative and positive controls respectively. All data was evaluated in comparison to the positive and negative controls to calculate percentage inhibition of male and female gametocytes, and dose response analysis and IC50 calculation performed using GraphPad Prism. […]
The pellet was subjected to five

SMILES: CC(C)(Nc1ccc(Cl)c(S(=O)(=O)N2CCOCC2)c1)C(=O)Nc1ccc(F)c(Cl)c1 [W-991]
- soluble protein level in the presence of compound (stabilisation) (PfSTART1): significantly (p < 0.01) increased levels
- P. berghei sporozoite invasion ([1]; 2 h incubation with HC-04 cells, p > 0.05): showed no defect in invasion; also recorded: had no impact
- Liver stage invasion assay: in ([1]; count of sporozoites inside cells, Replicate 1 and 2): 58 and 121
- Liver stage invasion assay: out ([1]; count of sporozoites outside cells, Replicate 1 and 2): 92 and 153
- Liver stage invasion assay: ratio ([1]; in relative to in + out, Replicate 1 and 2): 38.6667 and 44.1606
